Experiment [1] concerns normal human melanocytes. Description: Comet test: internal photo protection against UVA- and UVB-induced DNA strand breaks. It counts as cell-based. The conditions noted are these: peptide 3 × 10^−8 M, 2 h at 37° C., non treated cells 100%, irradiated cells 0%; for CGP (%) coefficient of genomic protection against UVA: then UVA 365 nm, 0.8 J/cm^2; for CGP (%) coefficient of genomic protection against UVB: then UVB 312 nm, 0.06 J/cm^2. On the procedure: The proto protective ability of peptides A1 and B1 against UVA and UVB was evaluated using a Comet test according to the protocol of De Meo (De Meo et al. Mutation Res. 1991; 260; 295-306).
The comet test enables the quantification of DNA strand breaks induced by a genotoxic agent.
Material: Primary culture of normal human melanocytes.
Treatment: Cells were treated for 2 h at 37° C. with peptides A1 and B1 separately at 3×10^−8 M and then exposed to UVA (365 nm, 0.8 J/cm^2) or UVB (312 nm/0.06 J/cm^2).
Results are reported in Table 1 below as a coefficient of genomic protection against UVA or UVB (CGP %).

The subject of experiment [2] is Keratinocytes NCTC-2544. The experiment is described as follows: UVA-induced oxidative lesions (formation of 8-oxo D guanosine) in keratinocytes. It counts as cell-based, human. The conditions noted are these: 24 h + 30 min re-stimulation, UVA 15 J/cm^2, UVA-irradiated cells 100%, non treated cells 0%. On the procedure:
Material: Keratinocytes NCTC-2544.
Treatment: Keratinocytes were incubated with either peptide (A1 or B1) for 24 h, re-stimulated with the same peptide for 30 minutes and then irradiated with UVA (15 J/cm^2).
Results: The cells exposed to UVs are subjected to damages/lesions induced by oxidative stress. The oxydative damages or lesions were monitored with the formation of 8-oxo D guanosine and the effect of the peptides was expressed as a percentage of inhibition of the production of oxidative damages/lesions.

Experiment [3] deals with glutathione. The experiment is described as follows: Glutathione regeneration in the presence of a superoxide anion by fluorometry (HRP/scopoletine). It counts as biochemical. The conditions noted are these: glutathione 10^−4 to 5×10^−5 M with or without peptide 10^−4 to 5×10^−5 M, HRP 3 μg/ml, reading at 180 seconds. From the text:
Peroxydase (Horseradish peroxydase or HRP) transforms H2O2 into O2^•− which reacts on fluorescent scopoletine and transforms it into a non fluorescent species. A rapid decrease in fluorescence is observed as a function of O2^•− release. In the presence of a scavenger for radical O2^•− (such as glutathione), the decrease in fluorescence is less pronounced. (Antioxidant Characterisation, Methodology and Mechanism, Barry Halliwell, Biochemical Pharmacology, 49, 1341-1348, (1995)) and (The scopoletin assay for hydrogen peroxide, a review and a better method, Jean T. Corbett, J. Biochem. Biophys. Methods, 18, 297-308 (1989)).
Material: A fluorometer set at 394 nm (excitation state) with a slot of 6, and 455 nm (emitting state) with a slot of 8 was used. Continuous data collection was made over a period of 180 seconds. The data obtained at the end of 180 seconds was compared to that obtained with a negative control (without scavenger) and that with a positive control (without free radicals).
The tested mixture comprised HRP (3 μg/ml), scopoletine (5×10^−6M), glutathione (10^−4 to 5×10^−5M), with or without peptide B1 (10^−4 to 5×10^−5 M). An oxygenated water (H2O2) solution was added immediately before reading the first fluorescence measure.
Results are presented in FIG. 3 and are expressed as the percentage of radical scavenging activity as compared to the positive control. […]

Experiment [4] has as its system IL-1α-induced IL-8 production. The experiment is described as follows: Inhibition of IL-1α-induced IL-8 production (ELISA) in normal human dermal fibroblasts. The following applies: concomitant with IL-1α for 24 hours. It counts as cell-based. (In general: ELISA stands for enzyme-linked immunosorbent assay.)

Lip = lipoyl residue of R or S configuration

Turning to “Lip-Lys-Gly-His-Lys-NH2 (Lip-KGHK-NH2) [Peptide A1]”, in experiment [1], the “CGP (%) coefficient of genomic protection against UVA” value is 93% and the “CGP (%) coefficient of genomic protection against UVB” value is given as 46.2%. Further, the “% INHIBITION of the production of oxidative damages/lesions” value in experiment [2] (peptide 1 nM) is given as −27%. Further, in experiment [2] (peptide 100 nM), the “% INHIBITION of the production of oxidative damages/lesions” value is on record as −53%.
For Lip-His-DPhe-Arg-Trp-NH2 [Peptide B1], in experiment [3], the “glutathione regeneration activity (radical scavenging activity compared to positive control)” value was “displayed a glutathione regeneration activity”. Moreover, the “CGP (%) coefficient of genomic protection against UVA” value in experiment [1] came out at 69.9%. Moreover, in experiment [1], the “CGP (%) coefficient of genomic protection against UVB” value was 85.8%. The “INHIBITION of IL-8 production” value in experiment [4] (peptide 10 pM) turned out to be 56%; in experiment [4] (peptide 1 nM), 60%. Further, the “% INHIBITION of the production of oxidative damages/lesions” value in experiment [2] (peptide 1 nM) is on record as −50%; in experiment [2] (peptide 100 nM), −76%.

The values above are taken from US20100310484A1, “NOVEL PEPTIDES, USE THEREOF IN COSMETIC AND COSMECEUTIC APPLICATIONS, AND COMPOSITIONS COMPRISING SAME” (Innovactiv Inc., priority 2007, published 2010).
